Reference: US4251628A, “Substrates for angiotensin converting enzyme” (priority 1978, dated 1981)

Tests used:
serum carboxypeptidase = experiment: Sensitivity to serum carboxypeptidase; format: biochemical
[1] = Extraction (partition) into ethyl acetate; format: physicochemical
From the text: (§1) Reaction conditions optimal for carrying out an ACE catalyzed hydrolysis of a substrate of the present invention are the same as have been previously described for substrates known in the prior art. Detailed studies of optimal conditions using HipGlyGly as substrate have been reported by Dorer, et al. The pH optimum is approximately 8.0 although greater than 50% maximal activity is obtained in the pH range 7.0-9.0, in the presence of 1 M NaCl. […] The relationship between the chloride requirement and the ionic strength requirement has not been fully characterized. […] Phosphate is inhibitory. Hepes, bicine and barbital buffers are suitable for use but Hepes is preferred because it provides maximum activity. Preferred conditions of buffer composition, ionic strength, pH and temperature are described in Example 1. […] The pH range for usable enzyme activity is from pH 6.5 to pH 8.7, with a broad plateau of maximal activity ranging from pH 7.2 to pH 8.5. Optimal substrate concentration depends upon the apparent Km, for the substrate compared with the Km's of possible competing substances in the sample. A substrate having a relatively low Km, such as ^3 H-benzoylProPheArg (Km 2×10^-4 M) could be suitably used at a concentration less than its Km. A substrate having a higher Km might better be used at a concentration greater than its Km. […] Because its Km is the lowest of any of the substrates of the present invention, ^3 H-benzoylProPheArg is the most preferred substrate for assays where ACE activity is low and maximum sensitivity is desired. In addition to being less sensitive to competitive inhibition, assays carried out with this substrate are potentially able to measure lower levels of ACE than the other substrates disclosed herein. Additionally, its partition behavior in an aprotic organic solvent is extremely favorable: only about 3% entered ethyl acetate in a preliminary extraction experiment. The remnant product Benzoylproline was about 90% extracted.
The remnant reaction product may be extracted from the reaction mixture by an aprotic organic solvent which affords a reasonably quantitative separation of product from substrate. The use of solvents which may interfere with the counting process is to be avoided. Ethyl acetate is preferred. Approximately 91% of ^3 H-Hippuric acid is extracted into ethyl acetate. Extraction may be carried out by any suitable means familiar to those skilled in the art, such as shaking, agitating, mixing and the like. Separation of the phases is conveniently accomplished by centrifugation. Centrifugation at 1000×G for ten minutes is preferred, either at room temperature or in a refrigerated centrifuge. In some cases, an emulsion will form which can be separated by a longer centrifugation step.
A control determination of background radioactivity was made using 50 μl. of reaction buffer instead of diluted serum in the reaction mixture. The purpose of this control was to determine the number of total counts attributable to background radiation, non-specific release of hippuric acid and the presence of unreacted substrate in the ethyl acetate phase. Less than 7% of the ^3 H-HipGly Gly entered the organic phase. Total radioactivity was determined by counting an amount of substrate equal to that used in the reaction mixture directly in the scintillation counter. […]

[2] = system: angiotensin converting enzyme (ACE); settings: HipGlyGly as substrate, cited from earlier work
[3] = system: angiotensin converting enzyme (ACE); settings: similar reaction conditions, enzyme from hog lung (Dorer et al.); cited from earlier work
[4] = target: T1, angiotensin converting enzyme (ACE) (Homo sapiens, UniProt P12821); experiment: ACE assay: hydrolysis of ^3H-HipGlyGly by human serum, Lineweaver-Burke Km; format: biochemical
T1 construct: Serum was prepared from fresh whole blood by standard techniques; from tissue; host or cells: serum (unfractionated)
Procedure: The following sample illustrates the preferred assay method, the sensitivity of the assay and the Km for ^3 H-HipGlyGly. The reaction buffer contains 0.05 M Hepes, 0.1 M sodium chloride and 0.6 M sodium sulphate at pH 8.0. (Pepes is N-2-Hydroxyethyl piperazine N'-2-ethane sulfonic acid.) The substrate, ^3 H-HipGlyGly was dissolved in reaction buffer at a concentration of 16 mM and a specific radioactivity of about 0.15 millicuries/millimole. Serum was prepared from fresh whole blood by standard techniques. […] Hemolyzed samples were not used in the assay. Serum samples could be stored at least for one week at 2° C. to 8° C. or for at least 8 weeks frozen, prior to assaying. For the assay, 50 μl. of serum was diluted with 200 μl. of reaction buffer. All the reactions were carried out in glass tubes due to the potentially destructive action of ethyl acetate on plastic.
The reaction mixture was composed of 50 μl. of diluted serum, an appropriate amount of substrate solution depending on the final substrate concentration desired, and reaction buffer sufficient to give a total reaction volume of 100 μl. All reaction tubes were incubated for 60 minutes at 37° C. Reactions were terminated by the addition of 1.0 ml. of 0.1 N hydrochloric acid. The reaction mixture was then extracted with 1.0 ml. ethyl acetate, by rotary agitation for 4-5 seconds. The phases were separted by centrifugation at 1000×G for ten minutes. A 0.5 ml. sample of the ethyl acetate (upper) layer was removed and tranferred to a scintillation vial containing 10 ml. scintillation fluid. (Riafluor, Trademark, New England Nuclear Corp., Boston, Mass.)
A control determination of background radioactivity was made using 50 μl. of reaction buffer instead of diluted serum in the reaction mixture. The purpose of this control was to determine the number of total counts attributable to background radiation, non-specific release of hippuric acid and the presence of unreacted substrate in the ethyl acetate phase. Less than 7% of the ^3 H-HipGly Gly entered the organic phase. Total radioactivity was determined by counting an amount of substrate equal to that used in the reaction mixture directly in the scintillation counter.
Reaction velocity, in terms of nanomoles of product formed per minute per ml of serum was calculated according to the following formula: [formula] In this formula, "nmoles" means nanomoles, "min" means minutes, "ml" means milliliters and "cpm" means radioactivity counts per minute. The factor of 2 is a correction for the aliquot size. In the case where a significant fraction of substrate has been hydrolyzed, and the substrate in one which is more soluble in the organic phase, as for example, ^125 I-HPPGlyGlyGly, a modified formula is used to take account of the decreasing amount of substrate as the reaction progresses: [formula]
Reciprocal values of initial substrate concentration and reaction velocity were calculated and graphed according to the method of Lineweaver and Burke, as shown in FIG. 1. A straight line was obtained, which intercepted the ordinate at a value equal to the reciprocal of the maximum velocity of the enzyme reaction and intercepted the abcissa at a value equal to the negative reciprocal of the apparent Michaelis constant. […] It can be seen that reaction velocities as low as 12 nanomoles of substrate hydrolyzed per minute per ml. of serum can readily be measured.

[5] = system: angiotensin converting enzyme (ACE); experiment: ACE-catalyzed hydrolysis: Km, pH, chloride and buffer dependence; format: biochemical; settings: by substrate
From the text: as §1

[6] = target: T2, angiotensin converting enzyme (ACE) (Cavia porcellus, UniProt H0UWL7); experiment: Hydrolysis of ^125I-HPPGlyGlyGly by guinea pig serum ACE; format: biochemical
T2 construct: native circulating soluble form, expected to be shed somatic ACE
T2 sequence (H0UWL7 33-1234): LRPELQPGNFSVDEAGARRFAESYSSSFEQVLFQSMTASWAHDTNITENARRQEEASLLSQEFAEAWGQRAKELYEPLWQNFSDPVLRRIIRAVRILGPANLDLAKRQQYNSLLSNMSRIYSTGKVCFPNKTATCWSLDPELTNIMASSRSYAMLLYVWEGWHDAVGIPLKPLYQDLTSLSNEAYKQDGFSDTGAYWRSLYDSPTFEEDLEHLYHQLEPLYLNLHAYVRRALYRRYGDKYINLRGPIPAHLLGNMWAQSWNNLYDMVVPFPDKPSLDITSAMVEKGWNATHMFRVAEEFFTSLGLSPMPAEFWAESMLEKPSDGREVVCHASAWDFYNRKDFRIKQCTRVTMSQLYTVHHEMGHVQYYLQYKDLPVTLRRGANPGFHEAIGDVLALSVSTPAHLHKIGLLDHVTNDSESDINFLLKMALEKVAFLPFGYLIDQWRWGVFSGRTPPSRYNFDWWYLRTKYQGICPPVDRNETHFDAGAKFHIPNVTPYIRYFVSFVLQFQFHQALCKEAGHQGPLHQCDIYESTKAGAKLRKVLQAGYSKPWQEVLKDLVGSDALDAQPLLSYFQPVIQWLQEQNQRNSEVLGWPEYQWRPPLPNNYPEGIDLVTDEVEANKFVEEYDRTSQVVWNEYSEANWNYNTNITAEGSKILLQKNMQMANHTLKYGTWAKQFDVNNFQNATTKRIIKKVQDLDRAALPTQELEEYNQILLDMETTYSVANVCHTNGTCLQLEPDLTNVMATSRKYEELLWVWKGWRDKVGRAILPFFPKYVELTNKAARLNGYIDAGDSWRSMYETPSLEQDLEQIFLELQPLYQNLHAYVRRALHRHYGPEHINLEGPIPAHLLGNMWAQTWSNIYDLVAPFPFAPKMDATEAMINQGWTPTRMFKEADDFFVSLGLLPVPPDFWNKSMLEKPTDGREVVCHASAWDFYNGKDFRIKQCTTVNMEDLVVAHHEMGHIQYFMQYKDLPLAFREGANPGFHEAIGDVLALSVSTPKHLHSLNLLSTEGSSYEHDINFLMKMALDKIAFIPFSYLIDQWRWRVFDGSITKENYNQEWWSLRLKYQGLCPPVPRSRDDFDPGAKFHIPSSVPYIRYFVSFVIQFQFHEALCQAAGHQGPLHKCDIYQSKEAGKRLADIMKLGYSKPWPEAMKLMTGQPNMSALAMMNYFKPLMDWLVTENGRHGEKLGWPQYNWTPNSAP
Procedure: The standard assay conditions as described in Example 1 were employed except that the source of ACE was guinea pig serum and the amount of substrate added was that amount needed to give 101,436 total counts per minute. In terms of mass, this amount is believed to be well below the Km for the substrate. Samples were incubated for 15 minutes, 30 minutes and 60 minutes, and an unreacted sample (0 time) was used to determine the amount of substrate extracted into ethyl acetate.

T1 sequence (P12821 30-1232 limits assumed): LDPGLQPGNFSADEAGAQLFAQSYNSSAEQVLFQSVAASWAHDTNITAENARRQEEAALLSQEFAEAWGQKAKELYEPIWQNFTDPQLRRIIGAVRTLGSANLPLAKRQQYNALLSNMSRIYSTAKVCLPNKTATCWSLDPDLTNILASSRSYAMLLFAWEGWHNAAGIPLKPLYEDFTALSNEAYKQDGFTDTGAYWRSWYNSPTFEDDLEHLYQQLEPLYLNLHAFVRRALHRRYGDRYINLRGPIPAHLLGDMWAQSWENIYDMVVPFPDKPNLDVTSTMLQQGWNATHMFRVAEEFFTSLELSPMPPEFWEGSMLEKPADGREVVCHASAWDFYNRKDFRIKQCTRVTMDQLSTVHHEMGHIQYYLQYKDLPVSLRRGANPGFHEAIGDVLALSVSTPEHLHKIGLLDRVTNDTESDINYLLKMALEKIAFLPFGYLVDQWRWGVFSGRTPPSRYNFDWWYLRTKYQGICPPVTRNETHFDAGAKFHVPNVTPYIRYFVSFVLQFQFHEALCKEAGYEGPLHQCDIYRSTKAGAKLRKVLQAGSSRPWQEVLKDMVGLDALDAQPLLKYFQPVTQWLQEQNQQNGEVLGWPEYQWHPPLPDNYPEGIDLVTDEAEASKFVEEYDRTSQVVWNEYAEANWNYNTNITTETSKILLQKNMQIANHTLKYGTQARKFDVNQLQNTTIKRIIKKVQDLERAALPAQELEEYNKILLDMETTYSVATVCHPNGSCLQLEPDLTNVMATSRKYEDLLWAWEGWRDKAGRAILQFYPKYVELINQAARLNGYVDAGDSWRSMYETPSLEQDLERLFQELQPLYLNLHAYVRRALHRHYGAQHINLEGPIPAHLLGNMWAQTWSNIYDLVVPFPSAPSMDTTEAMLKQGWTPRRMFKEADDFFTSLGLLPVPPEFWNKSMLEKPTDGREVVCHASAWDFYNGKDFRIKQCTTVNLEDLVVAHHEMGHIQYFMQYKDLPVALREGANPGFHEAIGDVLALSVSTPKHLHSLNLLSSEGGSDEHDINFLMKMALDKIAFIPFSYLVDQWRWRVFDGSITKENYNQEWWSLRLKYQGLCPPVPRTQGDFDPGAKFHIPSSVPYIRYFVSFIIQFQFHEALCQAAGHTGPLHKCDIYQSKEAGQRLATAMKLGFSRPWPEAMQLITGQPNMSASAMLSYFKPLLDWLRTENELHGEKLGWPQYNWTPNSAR

[3H]c1ccc(C(=O)NCC(=O)NCC(=O)NCC(=O)O)cc1 [^3 H-HipGlyGly, ^3 H-hippurylglycylglycine]
Sensitivity to serum carboxypeptidase (serum carboxypeptidase): insensitive to serum carboxypeptidase
Fraction extracted into ethyl acetate [1]: Less than 7%
pH range with greater than 50% maximal activity ([2]; 1 M NaCl): 7.0-9.0
pH optimum of ACE-catalyzed hydrolysis ([2]; Dorer et al.): approximately 8.0
Km [3]: 2600 µM
Reciprocal of reaction velocity ([4]; [S] 1.82 mM): 0.0504
Velocity ([4]; [S] 1.82 mM): 19.83 nanomoles of product formed pe
Reciprocal of reaction velocity ([4]; [S] 3.64 mM): 0.0289
Velocity ([4]; [S] 3.64 mM): 34.65 nanomoles of product formed pe
Reciprocal of reaction velocity ([4]; [S] 5.45 mM): 0.0214
Velocity ([4]; [S] 5.45 mM): 46.76 nanomoles of product formed pe
Reciprocal of reaction velocity ([4]; [S] 7.27 mM): 0.0191
Velocity ([4]; [S] 7.27 mM): 52.48 nanomoles of product formed pe
Reciprocal of reaction velocity ([4]; [S] 9.09 mM): 0.0183
Velocity ([4]; [S] 9.09 mM): 54.63 nanomoles of product formed pe
Reciprocal of reaction velocity ([4]; [S] .91 mM): 0.0810
Velocity ([4]; [S] .91 mM): 12.35 nanomoles of product formed pe
Assay sensitivity (lowest measurable enzyme activity) ([4]; assay condition of Example 1): 8 units of enzyme per ml
Chloride / ionic strength requirement of the ACE-catalyzed hydrolysis [5]: requires chloride ions

O=C(O)CNC(=O)CNC(=O)CNC(=O)CCc1ccc(O)c([125I])c1 [^125 I-HPPGlyGlyGly, ^125 I-p-hydroxyphenylpropionylglycylglycylglycine]
Net cpm in product ([6]; incubation 0 min): 0 cpm
cpm in Ethyl Acetate phase ([6]; incubation 0 min): 27,205 cpm
Net cpm in product ([6]; incubation 15 min): 17,808 cpm
cpm in Ethyl Acetate phase ([6]; incubation 15 min): 40,000 cpm
Net cpm in product ([6]; incubation 30 min): 43,804 cpm
cpm in Ethyl Acetate phase ([6]; incubation 30 min): 59,182 cpm
Net cpm in product ([6]; incubation 60 min): 58,044 cpm
cpm in Ethyl Acetate phase ([6]; incubation 60 min): 69,577 cpm
Sensitivity to serum carboxypeptidase (serum carboxypeptidase): insensitive to serum carboxypeptidase
Fraction extracted into ethyl acetate [1]: 27.2%
Chloride / ionic strength requirement of the ACE-catalyzed hydrolysis [5]: requires chloride ions
